Measurements as given in ChEMBL document CHEMBL5244230, “Artemisinin-derived hybrids and their anticancer activity” (Eur J Med Chem, 2020).

Assays:
[1] = Cytotoxicity against human HCEC cells; format: toxicity, cell-based
KB = assay: Antiproliferative activity against human KB cells; format: functional, cell-based
HepG2 = assay: Antiproliferative activity against human HepG2 cells; format: functional, cell-based
HCT-116 [2] = assay: Antiproliferative activity against human HCT-116 cells; format: functional, cell-based
MV4-11 = assay: Antiproliferative activity against human MV4-11 cells; format: functional, cell-based
A549 = assay: Antiproliferative activity against human A549 cells; format: functional, cell-based
A-431 = assay: Antiproliferative activity against human A-431 cells; format: functional, cell-based
PC-3 = assay: Antiproliferative activity against human PC-3 cells; format: functional, cell-based
COLO 205 = assay: Antiproliferative activity against human COLO 205 cells; format: functional, cell-based
HEK293 = assay: Antiproliferative activity against human HEK293 cells; format: functional, cell-based
K562 = assay: Antiproliferative activity against human K562 cells; format: functional, cell-based
MDA-MB-231 [3] = assay: Antiproliferative activity against human MDA-MB-231 cells; format: functional, cell-based; settings: Homo sapiens, MDA-MB-231
P388 = assay: Anticancer activity against mouse P388 cells; format: functional, cell-based
MCF7 [4] = assay: Anticancer activity against human MCF7 cells assessed as inhibition of cell growth; format: functional, cell-based
MCF7 [5] = assay: Anticancer activity against human MCF7 cells; format: functional, cell-based
[6] = Anticancer activity against human Lu1 cells; format: functional, cell-based
HL-60 [7] = assay: Anticancer activity against human HL-60 cells; format: functional, cell-based
HeLa = assay: Antiproliferative activity against human HeLa cells assessed as reduction in cell viability; format: functional, cell-based
HCT-116 [8] = assay: Antiproliferative activity against human HCT-116 cells assessed as reduction in cell viability; format: functional, cell-based; settings: Homo sapiens, HCT-116
[9] = Antiproliferative activity against human MRC5 cells assessed as reduction in cell viability; format: toxicity, cell-based
HT-29 = assay: Antiproliferative activity against human HT-29 cells assessed as reduction in cell viability; format: functional, cell-based
MDA-MB-231 [10] = assay: Antiproliferative activity against human MDA-MB-231 cells assessed as reduction in cell viability; format: functional, cell-based
[11] = Antiproliferative activity against mouse P388 cells assessed as reduction in cell viability measured after 72 hrs; format: functional, cell-based; settings: time 72 hrs
P388/ADR = assay: Antiproliferative activity against mouse P388/ADR cells assessed as reduction in cell viability measured after 72 hrs; format: functional, cell-based; settings: time 72 hrs
HL-60 [12] = assay: Antiproliferative activity against human HL-60 cells assessed as reduction in cell viability measured after 72 hrs; format: functional, cell-based; settings: HL-60, time 72 hrs

C[C@H]1[C@H](Sc2ccccc2)O[C@@H]2O[C@@]3(C)CC[C@H]4[C@H](C)CC[C@@H]1[C@@]24OO3
0.93 µM: IC50 [1]

CC1=CN([C@H]2C[C@H](n3cc(-c4cccc(NC(=O)CCC(=O)O[C@@H]5O[C@@H]6O[C@@]7(C)CC[C@H]8[C@H](C)CC[C@@H]([C@H]5C)[C@@]68OO7)c4)nn3)[C@@H](CO)O2)C(C)NC1=O (stereo partly specified)
47.6 µM: IC50 (KB) | IC50 (HepG2)

C[C@H]1[C@@H](OC(=O)CCC(=O)NCCCNc2c3c4ccccc4nc-3n(C)c3ccccc23)O[C@@H]2O[C@@]3(C)CC[C@H]4[C@H](C)CC[C@@H]1[C@@]24OO3
0.072 µM: IC50 (HCT-116 [2]) | IC50 (MV4-11) | IC50 (A549)

C[C@H]1[C@@H](Sc2ccccc2)O[C@@H]2O[C@@]3(C)CC[C@H]4[C@H](C)CC[C@@H]1[C@@]24OO3
5.24 µM: IC50 [1]

Cc1cn([C@H]2C[C@H](n3cc(CNC(=O)CCCC(=O)O[C@@H]4O[C@@H]5O[C@@]6(C)CC[C@H]7[C@H](C)CC[C@@H]([C@H]4C)[C@@]57OO6)nn3)[C@@H](CO)O2)c(=O)[nH]c1=O
47.6 µM: IC50 (KB) | IC50 (HepG2)

C[C@H]1[C@@H](OC(=O)CCC(=O)NCC(C)(C)CNc2c3c4ccccc4nc-3n(C)c3ccc(Cl)cc23)O[C@@H]2O[C@@]3(C)CC[C@H]4[C@H](C)CC[C@@H]1[C@@]24OO3
0.072 µM: IC50 (HCT-116 [2]) | IC50 (MV4-11) | IC50 (A549)

C[C@H]1[C@@H](OCCn2cc(COc3ccc(C=O)c(O)c3)nn2)O[C@@H]2O[C@@]3(C)CC[C@H]4[C@H](C)CC[C@@H]1[C@@]24OO3
18 µM: IC50 (A-431) | IC50 (PC-3) | IC50 (COLO 205) | IC50 (HEK293) | IC50 (K562) | IC50 (A549) | IC50 (MDA-MB-231 [3])

COC(=O)c1ccc2c(c1)c(NCCCNC(=O)CCC(=O)O[C@H]1O[C@@H]3O[C@@]4(C)CC[C@H]5[C@H](C)CC[C@@H]([C@H]1C)[C@@]35OO4)c1c3ccccc3nc-1n2C
0.072 µM: IC50 (HCT-116 [2]) | IC50 (MV4-11) | IC50 (A549)

Cc1cn([C@H]2C[C@H](n3cc(COC(=O)CCCC(=O)O[C@@H]4O[C@@H]5O[C@@]6(C)CC[C@H]7[C@H](C)CC[C@@H]([C@H]4C)[C@@]57OO6)nn3)[C@@H](CO)O2)c(=O)[nH]c1=O
16.5 µM: IC50 (KB) | IC50 (HepG2)

C[C@H]1[C@@H](OCCc2cn(-c3cccc(C(=O)N4CCCCC4)c3)nn2)O[C@@H]2O[C@@]3(C)CC[C@H]4[C@H](C)CC[C@@H]1[C@@]24OO3
5.7 µM: IC50 (P388) | IC50 (MCF7 [4]) | IC50 (MCF7 [5]) | IC50 [6] | IC50 (HL-60 [7])

C[C@H]1[C@@H](CCCOP(=O)(O)Oc2ccccc2)O[C@@H]2O[C@@]3(C)CC[C@H]4[C@H](C)CC[C@@H]1[C@@]24OO3
3.82 µM: IC50 (HeLa) | IC50 (HCT-116 [8])

COC(=O)c1ccc2c(c1)c(NCC(C)(C)CNC(=O)CCC(=O)O[C@H]1O[C@@H]3O[C@@]4(C)CC[C@H]5[C@H](C)CC[C@@H]([C@H]1C)[C@@]35OO4)c1c3ccccc3nc-1n2C
0.072 µM: IC50 (HCT-116 [2]) | IC50 (MV4-11) | IC50 (A549)

C[C@H]1[C@@H](OC(=O)CCC(=O)NCC(C)(C)CNc2c3c4ccccc4nc-3n(C)c3ccc(Br)cc23)O[C@@H]2O[C@@]3(C)CC[C@H]4[C@H](C)CC[C@@H]1[C@@]24OO3
0.072 µM: IC50 (HCT-116 [2]) | IC50 (MV4-11) | IC50 (A549)

CC(=O)c1ccccc1-n1cc(CO[C@H]2O[C@@H]3O[C@]4(C)OO[C@]35[C@@H](CC[C@@H](C)[C@@H]5C[C@H]4O)[C@H]2C)nn1
25.3 µM: IC50 (A-431) | IC50 (PC-3) | IC50 (COLO 205) | IC50 (HEK293) | IC50 (K562) | IC50 (A549) | IC50 (MDA-MB-231 [3])

C[C@H]1[C@H](OCCCn2cc(COc3cccc4c(C(F)(F)F)cc(=O)oc34)nn2)O[C@@H]2O[C@@]3(C)CC[C@H]4[C@H](C)CC[C@@H]1[C@@]24OO3
0.43 µM: IC50 [9] | IC50 (HT-29) | IC50 (MDA-MB-231 [10]) | IC50 (HCT-116 [8])

CCN1CCN(C(=O)CCC(=O)O[C@@H]2O[C@@H]3O[C@]4(C)CC[C@H]5[C@H](C)CC[C@@H]([C@H]2C)[C@@]35OO4)CC1
0.231 µM: GI50 [11] | GI50 (P388/ADR) | GI50 (HL-60 [12])
